For data set [1], the target named is E. coli leader peptidase (Escherichia coli, UniProt P00803). As to conditions: cited from earlier work.
Data set [2] has as its target T1, Octanoyl-[…]OH.
T1 chain: LTPTAKAASKIDD

The target in data set [3] is T2, Decanoyl-[…]OH.
T2 chain: LTPTAKAASKIDD

E. coli leader peptidase, sequence (P00803 whole entry): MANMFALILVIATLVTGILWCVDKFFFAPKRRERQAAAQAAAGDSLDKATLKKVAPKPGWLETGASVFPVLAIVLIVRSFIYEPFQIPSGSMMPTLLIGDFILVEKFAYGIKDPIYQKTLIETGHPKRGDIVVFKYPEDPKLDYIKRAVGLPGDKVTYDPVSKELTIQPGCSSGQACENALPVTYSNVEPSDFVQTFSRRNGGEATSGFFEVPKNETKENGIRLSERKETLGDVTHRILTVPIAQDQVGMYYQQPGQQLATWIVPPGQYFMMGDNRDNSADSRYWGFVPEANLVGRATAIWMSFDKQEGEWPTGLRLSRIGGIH

As to ALAKI, the rate of turnover entry in data set [1] (Dev et al) was “very slow”.
On to ASVAVATLVPMLSFAAEGDDPAK, for which the rate of cleavage result in data set [1] (versus parent M13 procoat protein, Dierstein and Wickner) was “comparable to that of the parent”.

B1: S. aureus SpsB signal peptidase (protein)
chain: MKKELLEWIISIAVAFVILFIVGKFIVTPYTIKGESMDPTLKDGERVAVNIIGYKTGGLEKGNVVVFHANKNDDYVKRVIGVPGDKVEYKNDTLYVNGKKQDEPYLNYNLKHKQGDYITGTFQVKDLPNANPKSNVIPKGKYLVLGDNREVSKDSRAFGLIDEDQIVGKVSFRFWPFSEFKHNFNPENTKN
On to B1, for which the “processing after 30 minutes (HPLC/MS cleavage assay)” value in data set [2] and in data set [3] was >80% processing after 30 minutes throughout.

(Values after patent US20040024178A1, “Bacterial signal peptidase inhibitors and uses thereof” (priority 1999, published 2004).)
